From patent US11135234B2, “Effective aminoglycoside antibiotic for multidrug-resistant bacteria” (MICROBIAL CHEMISTRY RESEARCH FOUNDATION, priority 2015, dated 2021)
Converted amounts (≈) assume the structure as drawn.

Experiments:
[1] = test system: K. pneumoniae ATCC BAA-1705; assay: MIC, agar plate dilution method, K. pneumoniae ATCC BAA-1705; assay type: cell-based, Klebsiella pneumoniae; conditions: for MIC: Klebsiella pneumoniae, ATCCBAA1705, K. pneumoniae ATCC BAA-1705, KPC-producing strain, read-out: minimal inhibitory concentration (MIC); for minimal inhibitory concentration (MIC): K. pneumoniae ATCC BAA-1705, KPC-producing strain
Method in brief: (§1)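 Japan Society of Chemotherapy agar dilution protocol used. MIC reported in μg/mL.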

[2] = test system: A. baumannii ATCC BAA-1710; assay: MIC, agar plate dilution method, A. baumannii ATCC BAA-1710; assay type: cell-based, Acinetobacter baumannii; conditions: for MIC: Acinetobacter baumannii, ATCCBAA1710, A. baumannii ATCC BAA-1710, MDRA, read-out: minimal inhibitory concentration (MIC); for minimal inhibitory concentration (MIC): A. baumannii ATCC BAA-1710, MDRA
Method in brief: as §1

[3] = test system: S. aureus MF490; assay: MIC, agar plate dilution method, S. aureus MF490; assay type: cell-based, Staphylococcus aureus; conditions: for MIC: Staphylococcus aureus, MRSA, read-out: minimal inhibitory concentration (MIC); for minimal inhibitory concentration (MIC): S. aureus MF490, MRSA
Method in brief: as §1

[4] = test system: E. coli JM109/pMW218; assay: MIC, agar plate dilution method, E. coli JM109/pMW218; assay type: cell-based, Escherichia coli; conditions: for MIC: Escherichia coli, JM109/PMW218, E. coli JM109/pMW218, Sensitive bacterium, read-out: minimal inhibitory concentration (MIC); for minimal inhibitory concentration (MIC): E. coli JM109/pMW218, Sensitive bacterium
Method in brief: as §1

[5] = test system: S. aureus RN4220; assay: MIC, agar plate dilution method, S. aureus RN4220; assay type: cell-based, Staphylococcus aureus; conditions: for MIC: Staphylococcus aureus, RN4220, S. aureus RN4220, Sensitive bacterium, read-out: minimal inhibitory concentration (MIC); for minimal inhibitory concentration (MIC): S. aureus RN4220, Sensitive bacterium
Method in brief: as §1

[6] = test system: S. marcescens GN6944; assay: MIC, agar plate dilution method, S. marcescens GN6944; assay type: cell-based, Serratia marcescens; conditions: S. marcescens GN6944, GM-resistant; for MIC: Serratia marcescens, read-out: minimal inhibitory concentration (MIC)
Method in brief: as §1

[7] = test system: S. marcescens TH-0447; assay: MIC, agar plate dilution method, S. marcescens TH-0447; assay type: cell-based, Serratia marcescens; conditions: for MIC: Serratia marcescens, TH0447, S. marcescens TH-0447, AMK-resistant, read-out: minimal inhibitory concentration (MIC); for minimal inhibitory concentration (MIC): S. marcescens TH-0447, AMK-resistant
Method in brief: as §1

[8] = test system: P. aeruginosa MSC17707; assay: MIC, agar plate dilution method, P. aeruginosa MSC17707; assay type: cell-based, Pseudomonas aeruginosa; conditions: for MIC: Pseudomonas aeruginosa, MSC17707, P. aeruginosa MSC17707, AMK-resistant, read-out: minimal inhibitory concentration (MIC); for minimal inhibitory concentration (MIC): P. aeruginosa MSC17707, AMK-resistant
Method in brief: as §1

[9] = test system: S. aureus RN4220/pMS520; assay: MIC, agar plate dilution method, S. aureus RN4220/pMS520; assay type: cell-based, Staphylococcus aureus; conditions: for MIC: Staphylococcus aureus, MRSA, read-out: minimal inhibitory concentration (MIC), S. aureus RN4220/pMS520, MRSA; for minimal inhibitory concentration (MIC): S. aureus RN4220/pMS520, MRSA
Method in brief: as §1

[10] = test system: P. aeruginosa PAO1/GN315; assay: MIC, agar plate dilution method, P. aeruginosa PAO1/GN315; assay type: cell-based, Pseudomonas aeruginosa; conditions: for MIC: Pseudomonas aeruginosa, read-out: minimal inhibitory concentration (MIC), P. aeruginosa PAO1/GN315, AMK-resistant; for minimal inhibitory concentration (MIC): P. aeruginosa PAO1/GN315, AMK-resistant
Method in brief: as §1

[11] = test system: P. aeruginosa PAO1; assay: MIC, agar plate dilution method, P. aeruginosa PAO1; assay type: cell-based, Pseudomonas aeruginosa; conditions: for MIC: Pseudomonas aeruginosa, PAO1, P. aeruginosa PAO1, Sensitive bacterium, read-out: minimal inhibitory concentration (MIC); for minimal inhibitory concentration (MIC): P. aeruginosa PAO1, Sensitive bacterium
Method in brief: as §1

[12] = test system: K. pneumoniae ATCC BAA-2146; assay: MIC, agar plate dilution method, K. pneumoniae ATCC BAA-2146; assay type: cell-based, Klebsiella pneumoniae; conditions: for MIC: Klebsiella pneumoniae, ATCCBAA2146, K. pneumoniae ATCC BAA-2146, NDM-producing strain, read-out: minimal inhibitory concentration (MIC); for minimal inhibitory concentration (MIC): K. pneumoniae ATCC BAA-2146, NDM-producing strain
Method in brief: as §1

[13] = test system: P. aeruginosa MSC01035; assay: MIC, agar plate dilution method, P. aeruginosa MSC01035; assay type: cell-based, Pseudomonas aeruginosa; conditions: P. aeruginosa MSC01035, ABK-resistant; for MIC: Pseudomonas aeruginosa, read-out: minimal inhibitory concentration (MIC)
Method in brief: as §1

[14] = test system: E. faecium ATCC19434; assay: MIC, agar plate dilution method, E. faecium ATCC19434; assay type: cell-based, Enterococcus faecium; conditions: for MIC: Enterococcus faecium, ATCC19434, E. faecium ATCC19434, read-out: minimal inhibitory concentration (MIC); for minimal inhibitory concentration (MIC): E. faecium ATCC19434
Method in brief: as §1

| Compound | MIC [1] | MIC [2] | MIC [3] | MIC [4] | MIC [5] | MIC [6] | MIC [7] | MIC [8] | MIC [9] | MIC [10] | MIC [11] | MIC [12] | MIC [13] | MIC [14] | minimal inhibitory concentration (MIC) [1] | minimal inhibitory concentration (MIC) [2] | minimal inhibitory concentration (MIC) [3] | minimal inhibitory concentration (MIC) [4] | minimal inhibitory concentration (MIC) [5] | minimal inhibitory concentration (MIC) [6] | further results |
| --- | --- | --- | --- | --- | --- | --- | --- | --- | --- | --- | --- | --- | --- | --- | --- | --- | --- | --- | --- | --- | --- |
| CNC1C(O[C@H]2OC(CO)[C@@H](NC(CN)CN)[C@H](O)C2O)O[C@H]2CC(N)[C@@H](O[C@H]3CC[C@H](N)CC3N)OC2C1O (stereo partly shown) [Compound T2-d, 4″-N-(1,3-diaminopropan-2-yl)-5,6-dideoxyapramycin] | 2 µg/mL (≈ 3.45 µM) | 8 µg/mL (≈ 13.8 µM) | 4 µg/mL (≈ 6.9 µM) | 1 µg/mL (≈ 1.73 µM) | 2 µg/mL (≈ 3.45 µM) | 8 µg/mL (≈ 13.8 µM) | 8 µg/mL (≈ 13.8 µM) | 8 µg/mL (≈ 13.8 µM) | 1 µg/mL (≈ 1.73 µM) | 4 µg/mL (≈ 6.9 µM) | 4 µg/mL (≈ 6.9 µM) | 2 µg/mL (≈ 3.45 µM) | 8 µg/mL (≈ 13.8 µM) | 4 µg/mL (≈ 6.9 µM) | – | – | – | – | – | – | – |
| CNC1C(O[C@H]2OC(CO)[C@@H](NC(=N)N)[C@H](O)C2O)O[C@H]2CC(N)[C@@H](O[C@H]3CC[C@H](N)CC3N)OC2C1O (stereo partly shown) [Compound T2-e, 4″-deamino-5,6-dideoxy-4″-guanidinoapramycin] | 1 µg/mL (≈ 1.82 µM) | 4 µg/mL (≈ 7.28 µM) | 2 µg/mL (≈ 3.64 µM) | 0.5 µg/mL (≈ 0.91 µM) | 1 µg/mL (≈ 1.82 µM) | 2 µg/mL (≈ 3.64 µM) | 4 µg/mL (≈ 7.28 µM) | 4 µg/mL (≈ 7.28 µM) | 0.5 µg/mL (≈ 0.91 µM) | 4 µg/mL (≈ 7.28 µM) | 4 µg/mL (≈ 7.28 µM) | 0.5 µg/mL (≈ 0.91 µM) | 8 µg/mL (≈ 14.6 µM) | 4 µg/mL (≈ 7.28 µM) | – | – | – | – | – | – | – |
| CNC1C(OC2OC(CO)C(NC(=N)N)CC2O)OC2CC(N)C(OC3CC(O)C(N)CC3N)OC2C1O (stereo not shown) [Compound U4-a, 4″-deamino-5,3″-dideoxy-4″-guanidinoapramycin] | – | – | – | – | – | – | – | – | – | – | – | – | – | – | 1 µg/mL (≈ 1.82 µM) | 8 µg/mL (≈ 14.6 µM) | 4 µg/mL (≈ 7.28 µM) | 0.5 µg/mL (≈ 0.91 µM) | 1 µg/mL (≈ 1.82 µM) | 2 µg/mL (≈ 3.64 µM) | minimal inhibitory concentration (MIC) [7]: 4 µg/mL (≈ 7.28 µM); minimal inhibitory concentration (MIC) [8]: 8 µg/mL (≈ 14.6 µM); minimal inhibitory concentration (MIC) [9]: 1 µg/mL (≈ 1.82 µM); minimal inhibitory concentration (MIC) [10]: 4 µg/mL (≈ 7.28 µM); minimal inhibitory concentration (MIC) [11]: 4 µg/mL (≈ 7.28 µM); minimal inhibitory concentration (MIC) [12]: 0.5 µg/mL (≈ 0.91 µM); minimal inhibitory concentration (MIC) [13]: 8 µg/mL (≈ 14.6 µM); minimal inhibitory concentration (MIC) [14]: 4 µg/mL (≈ 7.28 µM) |
| CNCC(=O)N[C@@H]1C(CO)O[C@H](OC2O[C@H]3CC(N)[C@@H](O[C@@H]4C(N)C[C@@H](N)C(O)[C@H]4O)OC3C(O)C2NC)C(O)[C@H]1O (stereo partly shown) [Compound V1-b, 4″-N-sarcosylapramycin] | 2 µg/mL (≈ 3.28 µM) | 8 µg/mL (≈ 13.1 µM) | 8 µg/mL (≈ 13.1 µM) | 1 µg/mL (≈ 1.64 µM) | 2 µg/mL (≈ 3.28 µM) | 8 µg/mL (≈ 13.1 µM) | 16 µg/mL (≈ 26.2 µM) | 4 µg/mL (≈ 6.55 µM) | 2 µg/mL (≈ 3.28 µM) | 4 µg/mL (≈ 6.55 µM) | 4 µg/mL (≈ 6.55 µM) | 1 µg/mL (≈ 1.64 µM) | 4 µg/mL (≈ 6.55 µM) | 16 µg/mL (≈ 26.2 µM) | – | – | – | – | – | – | – |
| CNC1C(O[C@H]2OC(CO)[C@@H](NC(=O)[C@H](C)N)[C@H](O)C2O)O[C@H]2CC(N)[C@@H](O[C@@H]3C(N)C[C@@H](N)C(O)[C@H]3O)OC2C1O (stereo partly drawn) [Compound V1-c, 4″-N-(L-alanyl)apramycin] | – | – | – | – | – | – | – | – | – | – | – | – | – | – | 4 µg/mL (≈ 6.55 µM) | 8 µg/mL (≈ 13.1 µM) | 16 µg/mL (≈ 26.2 µM) | 2 µg/mL (≈ 3.28 µM) | 4 µg/mL (≈ 6.55 µM) | 8 µg/mL (≈ 13.1 µM) | minimal inhibitory concentration (MIC) [7]: 16 µg/mL (≈ 26.2 µM); minimal inhibitory concentration (MIC) [8]: 8 µg/mL (≈ 13.1 µM); minimal inhibitory concentration (MIC) [9]: 4 µg/mL (≈ 6.55 µM); minimal inhibitory concentration (MIC) [10]: 8 µg/mL (≈ 13.1 µM); minimal inhibitory concentration (MIC) [11]: 16 µg/mL (≈ 26.2 µM); minimal inhibitory concentration (MIC) [12]: 2 µg/mL (≈ 3.28 µM); minimal inhibitory concentration (MIC) [13]: 8 µg/mL (≈ 13.1 µM); minimal inhibitory concentration (MIC) [14]: 32 µg/mL (≈ 52.4 µM) |
